In patent US20060069132A1, “Azolecarboxamide herbicides” (priority 2004, published 2006):

Assays:
giant foxtail [1] = experiment: Test A pre-/postemergence herbicide test; assay type: in vivo, Setaria faberi
Method in brief: (§1)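 Seeds sown in sandy loam received a preemergence directed soil spray of compound in non-phytotoxic solvent with surfactant; postemergence plants (2–10 cm, one- to two-leaf stage) were sprayed to runoff at the same time. After ~10 days in greenhouse, injury was rated visually versus untreated controls (0 = no effect, 100 = complete control).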

giant foxtail [2] = experiment: Test B pre-/postemergence herbicide test; assay type: in vivo, Setaria faberi; settings: for Foxtail, Giant plant response rating: postemergence
Method in brief: (§2)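 Pre: seeds sown, then sprayed. Post: 1–4-leaf plants (2–18 cm) sprayed at the same time. Paddy: flooded, treated at 2-leaf stage. Formulation: non-phytotoxic solvent with surfactant. Greenhouse 13–15 days; visual 0–100 score relative to controls.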

redroot pigweed = experiment: Test A pre-/postemergence herbicide test; assay type: in vivo, Amaranthus retroflexus
Method in brief: as §1

ducksalad = experiment: Test B flooded paddy test; assay type: in vivo, Heteranthera limosa; settings: 1000 g ai/ha, scale 0 to 100 (0 no effect, 100 complete control)
Method in brief: (§3)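 Greenhouse test; postemergence application to plants at 1–4 leaves (2–18 cm); paddy species at 2 leaves; evaluated visually vs controls at 13–15 days; scale 0–100 (100 = complete control).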

blackgrass = experiment: Test B postemergence herbicide test; assay type: in vivo, Alopecurus myosuroides; settings: postemergence
Method in brief: as §3

velvetleaf [3] = experiment: Test B pre-/postemergence herbicide test; assay type: in vivo, Abutilon theophrasti; settings: for Velvetleaf plant response rating: postemergence
Method in brief: as §2

barnyardgrass [4] = experiment: Test A pre-/postemergence herbicide test; assay type: in vivo, Echinochloa crus-galli
Method in brief: as §1

large crabgrass [5] = experiment: Test A pre-/postemergence herbicide test; assay type: in vivo, Digitaria sanguinalis
Method in brief: as §1

wheat = experiment: Test B postemergence herbicide test; assay type: in vivo, Triticum aestivum; design: key to Wheat plant response rating: 0 = no effect, 100 = complete control; settings: postemergence
Method in brief: (§4)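 Scale 0–100: zero equals no visible effect, 100 complete control, judged by eye relative to controls. Timing: 13 to 15 days in greenhouse post-treatment. Growth stage at spraying: two leaves (paddy) or one to four leaves, 2–18 cm (postemergence).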

[6] = system: small flower umbrella sedge; experiment: Test B flooded paddy test; assay type: in vivo, Cyperus difformis; settings: 1000 g ai/ha, scale 0 to 100 (0 no effect, 100 complete control)
Method in brief: as §3

cocklebur = experiment: Test B pre-/postemergence herbicide test; assay type: in vivo, Xanthium strumarium; settings: for Cocklebur plant response rating: postemergence
Method in brief: (§5)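 Greenhouse pot assay with simultaneous preemergence (treated seed) and postemergence (2–18 cm seedlings) applications of surfactant-containing, non-phytotoxic solvent formulations. Response scored visually 13–15 days later on a 0–100 scale, 100 meaning complete control.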

morningglory [7] = experiment: Test B pre-/postemergence herbicide test; assay type: in vivo, Ipomoea coccinea; settings: for Morningglory plant response rating: postemergence
Method in brief: as §5

pigweed = experiment: Test B pre-/postemergence herbicide test; assay type: in vivo, Amaranthus retroflexus; settings: for Pigweed plant response rating: postemergence
Method in brief: as §2

wild oat = experiment: Test B postemergence herbicide test; assay type: in vivo, Avena fatua; settings: postemergence
Method in brief: as §4

barnyardgrass [8] = experiment: Test B flooded paddy test; assay type: in vivo, Echinochloa crus-galli; settings: 1000 g ai/ha, scale 0 to 100 (0 no effect, 100 complete control)
Method in brief: as §3

large crabgrass [9] = experiment: Test B pre-/postemergence herbicide test; assay type: in vivo, Digitaria sanguinalis; settings: for Crabgrass, Large plant response rating: postemergence
Method in brief: as §2

Surinam grass = experiment: Test B pre-/postemergence herbicide test; assay type: in vivo, Urochloa decumbens; settings: for Surinam Grass plant response rating: postemergence
Method in brief: as §2

barnyardgrass [10] = experiment: Test B pre-/postemergence herbicide test; assay type: in vivo, Echinochloa crus-galli; settings: for Barnyardgrass plant response rating: postemergence
Method in brief: as §5

morningglory [11] = experiment: Test A pre-/postemergence herbicide test; assay type: in vivo, Ipomoea spp.
Method in brief: as §1

lambsquarters = experiment: Test B pre-/postemergence herbicide test; assay type: in vivo, Chenopodium album; settings: for Lambsquarters plant response rating: postemergence
Method in brief: as §2

corn = experiment: Test B pre-/postemergence herbicide test; assay type: in vivo, Zea mays; settings: for Corn plant response rating: postemergence
Method in brief: as §2

rice = experiment: Test B flooded paddy test; assay type: in vivo, Oryza sativa; settings: 1000 g ai/ha, scale 0 to 100 (0 no effect, 100 complete control)
Method in brief: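 Plants grow to 1- to 4-leaf stage (2–18 cm) for postemergence spraying, or to 2-leaf stage for the paddy test. Formulated compound is applied. Greenhouse holding lasts 13–15 days. Response is scored visually relative to controls, 0 no effect to 100 complete control; a dash means no result.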

velvetleaf [12] = experiment: Test A pre-/postemergence herbicide test; assay type: in vivo, Abutilon theophrasti
Method in brief: as §1

[13] = Postemergence, 500 g ai/ha, 0 to 100 scale, 0 no effect, 100 complete control
[14] = Postemergence, 2000 g ai/ha, 0 to 100 scale, 0 no effect, 100 complete control
[15] = Preemergence, 2000 g ai/ha, visual rating, 0 to 100 scale (0 no effect, 100 complete control)
[16] = preemergence, 500 g ai/ha, visual injury, 0 to 100 scale (0 no effect, 100 complete control)
[17] = 125 g ai/ha, 0 is no effect, 100 is complete control, preemergence
[18] = 125 g ai/ha, visual rating, scale 0 (no effect) to 100 (complete control)
[19] = 500 g ai/ha, visual rating, 0 = no effect, 100 = complete control, preemergence
[20] = 500 g ai/ha, scale 0 to 100, 0 is no effect, 100 is complete control

CCOc1ccc(F)c(NC(=O)c2cc(C(C)(C)C)nn2CC)c1 [Compound 348]
Foxtail, Giant plant response rating (giant foxtail [1]; [13]): 0
Plant response rating, Foxtail, Giant (giant foxtail [1]; [14]): 0
Foxtail, Giant plant response rating (giant foxtail [1]; [15]): 0
Foxtail, Giant plant response rating (giant foxtail [1]; [16]): 0
Plant response rating (0 to 100 scale), Foxtail, Giant (giant foxtail [2]; [17]): 0
Foxtail, Giant plant response rating (giant foxtail [2]; [18]): 0
Plant response rating, Foxtail, Giant (giant foxtail [2]; [19]): 0
Foxtail, Giant plant response rating (giant foxtail [2]; [20]): 0
Pigweed plant response rating (redroot pigweed; [13]): 0
Plant response rating, Pigweed (redroot pigweed; [14]): 0
Pigweed plant response rating (redroot pigweed; [15]): 0
Pigweed plant response rating (redroot pigweed; [16]): 0
Ducksalad plant response rating (ducksalad): 0
Blackgrass plant response rating (blackgrass; [18]): 20
Blackgrass plant response rating (blackgrass; [20]): 40
Plant response rating (0 to 100 scale), Velvetleaf (velvetleaf [3]; [17]): 0
Velvetleaf plant response rating (velvetleaf [3]; [18]): 0
Velvetleaf plant response rating (velvetleaf [3]; [20]): 0
Barnyardgrass plant response rating (barnyardgrass [4]; [13]): 0
Plant response rating, Barnyardgrass (barnyardgrass [4]; [14]): 0
Barnyardgrass plant response rating (barnyardgrass [4]; [15]): 0
Barnyardgrass plant response rating (barnyardgrass [4]; [16]): 0
Crabgrass, Large plant response rating (large crabgrass [5]; [13]): 0
Plant response rating, Crabgrass, Large (large crabgrass [5]; [14]): 0
Crabgrass, Large plant response rating (large crabgrass [5]; [15]): 0
Crabgrass, Large plant response rating (large crabgrass [5]; [16]): 0
Wheat plant response rating (wheat; [18]): 20
Wheat plant response rating (wheat; [20]): 20
Sedge, Umbrella plant response rating [6]: 0
Plant response rating (0 to 100 scale), Cocklebur (cocklebur; [17]): 0
Cocklebur plant response rating (cocklebur; [18]): 0
Plant response rating, Cocklebur (cocklebur; [19]): 0
Cocklebur plant response rating (cocklebur; [20]): 0
Plant response rating (0 to 100 scale), Morningglory (morningglory [7]; [17]): 0
Morningglory plant response rating (morningglory [7]; [18]): 0
Plant response rating, Morningglory (morningglory [7]; [19]): 0
Morningglory plant response rating (morningglory [7]; [20]): 0
Plant response rating (0 to 100 scale), Pigweed (pigweed; [17]): 0
Pigweed plant response rating (pigweed; [18]): 0
Plant response rating, Pigweed (pigweed; [19]): 0
Pigweed plant response rating (pigweed; [20]): 0
Oat, Wild plant response rating (wild oat; [18]): 20
Oat, Wild plant response rating (wild oat; [20]): 30
Barnyardgrass plant response rating (barnyardgrass [8]): 0
Plant response rating (0 to 100 scale), Crabgrass, Large (large crabgrass [9]; [17]): 0
Crabgrass, Large plant response rating (large crabgrass [9]; [18]): 0
Plant response rating, Crabgrass, Large (large crabgrass [9]; [19]): 0
Crabgrass, Large plant response rating (large crabgrass [9]; [20]): 0
Plant response rating (0 to 100 scale), Surinam Grass (Surinam grass; [17]): 0
Surinam Grass plant response rating (Surinam grass; [18]): 0
Plant response rating, Surinam Grass (Surinam grass; [19]): 0
Surinam Grass plant response rating (Surinam grass; [20]): 0
Plant response rating (0 to 100 scale), Barnyardgrass (barnyardgrass [10]; [17]): 0
Barnyardgrass plant response rating (barnyardgrass [10]; [18]): 0
Plant response rating, Barnyardgrass (barnyardgrass [10]; [19]): 0
Barnyardgrass plant response rating (barnyardgrass [10]; [20]): 0
Morningglory plant response rating (morningglory [11]; [13]): 0
Plant response rating, Morningglory (morningglory [11]; [14]): 0
Morningglory plant response rating (morningglory [11]; [15]): 0
Morningglory plant response rating (morningglory [11]; [16]): 0
Plant response rating (0 to 100 scale), Lambsquarters (lambsquarters; [17]): 0
Lambsquarters plant response rating (lambsquarters; [18]): 0
Plant response rating, Lambsquarters (lambsquarters; [19]): 0
Lambsquarters plant response rating (lambsquarters; [20]): 0
Plant response rating (0 to 100 scale), Corn (corn; [17]): 0
Corn plant response rating (corn; [18]): 0
Plant response rating, Corn (corn; [19]): 0
Corn plant response rating (corn; [20]): 0
Rice plant response rating (rice): 0
Velvetleaf plant response rating (velvetleaf [12]; [13]): 0
Plant response rating, Velvetleaf (velvetleaf [12]; [14]): 0
Velvetleaf plant response rating (velvetleaf [12]; [15]): 0
Velvetleaf plant response rating (velvetleaf [12]; [16]): 0
